{"source": "ChEMBL document CHEMBL5325414", "about": "“Novel neuroprotective pyromeconic acid derivatives with concurrent anti-Aβ deposition, anti-inflammatory, and anti-oxidation properties for treatment of Alzheimer's disease” (Eur J Med Chem, 2023)", "key": {"[1]": {"tested_on": "Mus musculus", "assay": "In vivo effect on HO-1 expression in scopolamine induced cognitive impaired mouse assessed as reversal of NRF2 signalling in hippocampus treated at 20 mg/kg by immunofluorescence analysis", "format": "functional, organism-based"}, "[2]": {"target": "T1, Amyloid-beta precursor protein (Homo sapiens, UniProt P05067)", "T1 sequence (P05067 whole entry)": "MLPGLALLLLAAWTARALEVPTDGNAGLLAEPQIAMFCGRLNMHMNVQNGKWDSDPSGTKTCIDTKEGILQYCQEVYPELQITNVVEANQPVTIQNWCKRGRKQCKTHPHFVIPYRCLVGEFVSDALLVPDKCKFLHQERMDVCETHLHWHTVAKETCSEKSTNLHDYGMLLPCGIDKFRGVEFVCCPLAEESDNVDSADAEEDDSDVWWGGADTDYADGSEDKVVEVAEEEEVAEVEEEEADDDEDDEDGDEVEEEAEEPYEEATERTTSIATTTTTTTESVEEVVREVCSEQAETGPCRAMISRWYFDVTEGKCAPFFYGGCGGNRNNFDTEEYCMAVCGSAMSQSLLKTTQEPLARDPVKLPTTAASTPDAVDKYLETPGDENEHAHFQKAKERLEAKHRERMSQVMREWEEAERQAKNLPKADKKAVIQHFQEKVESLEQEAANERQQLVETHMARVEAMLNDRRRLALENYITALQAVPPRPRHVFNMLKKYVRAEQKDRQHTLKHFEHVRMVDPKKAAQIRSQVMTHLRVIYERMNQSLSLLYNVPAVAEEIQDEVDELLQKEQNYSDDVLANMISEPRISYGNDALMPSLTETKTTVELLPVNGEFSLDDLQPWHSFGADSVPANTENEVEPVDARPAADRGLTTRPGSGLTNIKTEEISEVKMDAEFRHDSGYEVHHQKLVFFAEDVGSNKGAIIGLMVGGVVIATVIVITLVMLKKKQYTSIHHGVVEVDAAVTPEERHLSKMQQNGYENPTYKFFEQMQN", "assay": "Inhibition of amyloid beta (1 to 42) (unknown origin) self aggregation assessed as shorter in amyloid fibrils compound addition at 50 uM after fibrilation for 24 hrs"}, "[3]": {"tested_on": "Mus musculus", "assay": "Anti alzheimer activity in scopolamine induced anxiety in ICR mouse assessed as increase in crossing time by measuring escape latency pretreated with scopolamine at 3 mg/kg, ip for 31 days followed by compound addition at 20 mg/kg, po at day 7 to 31 by morris water maze test", "format": "functional, organism-based", "conditions": "time 25.0 day"}, "[4]": {"tested_on": "Mus musculus", "assay": "Anti alzheimer activity in scopolamine induced anxiety in ICR mouse assessed as decrease in motor trajectories pretreated with scopolamine at 3 mg/kg, ip for 31 days followed by compound addition at 20 mg/kg, po at day 7 to 31 by morris water maze test", "format": "functional, organism-based", "conditions": "time 25.0 day"}, "[5]": {"assay": "Drug concentration in plasma of Sprague-Dawley rat at 15 mg/kg, IG measured after 0.083 hrs", "format": "ADME, organism-based", "conditions": "po"}, "[6]": {"tested_on": "Mus musculus", "assay": "In vivo antiinflammatory activity in scopolamine induced cognitive impaired ICR mouse assessed as decrease in GFAP levels in hippocampus by immunoblot analysis", "format": "functional, organism-based"}, "[7]": {"tested_on": "BV-2", "assay": "Effect of amyloid beta (1 to 42) indued apoptosis in mouse BV-2 cells assessed as early apoptotic cells at 2.5 uM measured by propidium iodide staining based flow cytometric analysis (reference value: 26.12%)", "format": "functional"}, "[8]": {"tested_on": "BV-2", "assay": "Effect of amyloid beta (1 to 42) indued apoptosis in mouse BV-2 cells assessed as viable cells at 2.5 uM measured by propidium iodide staining based flow cytometric analysis (reference value: 61.29%)", "format": "functional", "conditions": "read-out: Activity"}, "[9]": {"tested_on": "Mus musculus", "assay": "In vivo antiinflammatory activity in scopolamine induced cognitive impaired ICR mouse assessed as decrease in IL-6 levels in cortex", "format": "functional, organism-based"}, "[10]": {"tested_on": "Mus musculus", "assay": "In vivo effect on HO-1 expression in scopolamine induced cognitive impaired mouse assessed as reversal of NRF2 signalling in hippocampus treated at 20 mg/kg by immunoblot analysis", "format": "functional, organism-based"}, "[11]": {"tested_on": "Mus musculus", "assay": "Anti alzheimer activity in scopolamine induced anxiety in ICR mouse assessed as increase in discrimination ratio pretreated with scopolamine at 3 mg/kg, ip for 31 days followed by compound addition at 20 mg/kg, po at day 7 to 31 by novel object recognition test", "format": "functional, organism-based", "conditions": "time 25.0 day"}, "[12]": {"tested_on": "Mus musculus", "assay": "Anti alzheimer activity in scopolamine induced anxiety in ICR mouse assessed as improved exploratory activity pretreated with scopolamine at 3 mg/kg, ip for 31 days followed by compound addition at 20 mg/kg, po at day 7 to 31", "format": "functional, organism-based", "conditions": "time 25.0 day"}, "[13]": {"tested_on": "BV-2", "assay": "Effect of amyloid beta (1 to 42) indued apoptosis in mouse BV-2 cells assessed as viable cells at 10 uM measured by propidium iodide staining based flow cytometric analysis (reference value: 61.29%)", "format": "functional", "conditions": "read-out: Activity"}, "[14]": {"assay": "Metal chelating activity assessed as compound-Mg2+ complex formation by optical shift at 50 uM in PBS buffer 7.4 by UV-vis spectrometric analysis"}, "[15]": {"tested_on": "Mus musculus", "assay": "Neuroprotective effect in scopolamine induced cognitively impaired mouse assessed as recovery of decreased Nissl bodies in CA1 region at hippocampus at 20 mg/kg by Nissl staining analysis", "format": "functional, organism-based"}, "[16]": {"tested_on": "BV-2", "assay": "Neuroprotective activity against amyloid beta (1 to 42) induced neurotoxicity in mouse BV-2 cells assessed as survival of cells treated for 24 hrs", "format": "functional, cell-based", "conditions": "dose 2.5-10 µM"}, "[17]": {"tested_on": "Mus musculus", "assay": "Neuroprotective effect in scopolamine induced cognitively impaired mouse assessed as […] of amyloid beta plaque deposition at 20 mg/kg by ELISA analysis", "format": "functional, organism-based"}, "[18]": {"assay": "Drug concentration in hippocampus of Sprague-Dawley rat at 15 mg/kg, IG measured after 0.167 hrs", "format": "ADME, organism-based", "conditions": "po, read-out: Drug uptake"}, "[19]": {"assay": "Drug concentration in hippocampus of Sprague-Dawley rat at 15 mg/kg, IG measured after 0.25 hrs", "format": "ADME, organism-based", "conditions": "po, read-out: Drug uptake"}, "[20]": {"tested_on": "Mus musculus", "assay": "Neuroprotective effect in scopolamine induced cognitively impaired mouse assessed as decrease in neuronal damage in CA1 region by measuring increase in neuronal nuclear antigen level at hippocampus at 20 mg/kg by immunoblot analysis", "format": "functional, organism-based"}, "[21]": {"tested_on": "BV-2", "assay": "Effect of amyloid beta (1 to 42) indued apoptosis in mouse BV-2 cells assessed as early apoptotic cells at 5 uM measured by propidium iodide staining based flow cytometric analysis (reference value: 26.12%)", "format": "functional"}, "[22]": {"tested_on": "Mus musculus", "assay": "In vivo effect on NRF2 expression in scopolamine induced cognitive impaired mouse assessed as reversal of NRF2 signalling in hippocampus treated at 20 mg/kg by immunoblot analysis", "format": "functional, organism-based"}, "[23]": {"target": "T1, Amyloid-beta precursor protein", "assay": "Inhibition of amyloid beta (1 to 42) (unknown origin) self aggregation assessed as disaggregation relative to control", "parameters": "concentration or dose not given beside the values", "conditions": "concentration not given here"}, "[24]": {"tested_on": "Mus musculus", "assay": "Anti alzheimer activity in scopolamine induced anxiety in ICR mouse assessed as decrease in chaotic behaviour pretreated with scopolamine at 3 mg/kg, ip for 31 days followed by compound addition at 20 mg/kg, po at day 7 to 31 by morris water maze test", "format": "functional, organism-based", "conditions": "time 25.0 day"}, "[25]": {"assay": "Drug concentration in plasma of Sprague-Dawley rat at 15 mg/kg, IG measured after 1 hrs", "format": "ADME, organism-based", "conditions": "po"}, "[26]": {"assay": "Acute toxicity in mouse assessed as change in body weight at 2000 mg/kg, IG administered as single dose measured after 14 days", "format": "organism-based", "conditions": "in vivo, po, 336 h, time 14 day"}, "[27]": {"tested_on": "BV-2", "assay": "Effect of amyloid beta (1 to 42) indued apoptosis in mouse BV-2 cells assessed as necrotic cells at 5 uM measured by propidium iodide staining based flow cytometric analysis (reference value: 5.72%)", "format": "functional"}, "[28]": {"tested_on": "Mus musculus", "assay": "In vivo antiinflammatory activity in scopolamine induced cognitive impaired ICR mouse assessed as decrease in GFAP levels in cortex", "format": "functional, organism-based"}, "[29]": {"assay": "Acute toxicity in mouse assessed as histopathological change in liver at 2000 mg/kg, IG administered as single dose measured after 14 days measured by H and E staining analysis", "format": "organism-based", "conditions": "in vivo, po, 336 h, time 14 day"}, "[30]": {"target": "Amyloid-beta precursor protein (Mus musculus) (UniProt P12023)", "sequence (P12023 whole entry)": "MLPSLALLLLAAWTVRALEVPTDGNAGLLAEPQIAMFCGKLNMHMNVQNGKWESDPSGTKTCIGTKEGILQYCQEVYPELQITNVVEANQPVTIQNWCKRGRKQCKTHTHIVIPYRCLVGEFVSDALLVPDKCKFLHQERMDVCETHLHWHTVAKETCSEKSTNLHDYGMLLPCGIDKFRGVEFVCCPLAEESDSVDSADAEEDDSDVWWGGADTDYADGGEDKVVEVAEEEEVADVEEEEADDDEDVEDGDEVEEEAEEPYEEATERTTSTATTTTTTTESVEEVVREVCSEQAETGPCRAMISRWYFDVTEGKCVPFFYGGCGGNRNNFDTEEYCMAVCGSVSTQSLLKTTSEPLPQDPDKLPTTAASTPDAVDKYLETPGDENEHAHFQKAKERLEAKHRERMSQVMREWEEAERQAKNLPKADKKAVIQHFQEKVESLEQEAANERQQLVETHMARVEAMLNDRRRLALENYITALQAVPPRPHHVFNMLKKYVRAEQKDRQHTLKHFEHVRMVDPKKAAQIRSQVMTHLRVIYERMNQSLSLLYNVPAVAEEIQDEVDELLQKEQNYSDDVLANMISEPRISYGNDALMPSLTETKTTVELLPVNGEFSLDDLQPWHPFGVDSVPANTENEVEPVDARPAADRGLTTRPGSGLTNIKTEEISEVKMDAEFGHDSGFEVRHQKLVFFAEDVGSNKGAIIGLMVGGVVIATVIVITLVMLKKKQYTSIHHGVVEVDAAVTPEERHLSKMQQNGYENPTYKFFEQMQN", "assay": "Inhibition of amyloid beta (1 to 42) in mouse BV-2 cells by measuring scavenging effect at 2.5 to 10 uM by ThT fluorescence based immunoblot analysis", "format": "cell-based", "conditions": "dose 2.5-10 µM"}, "[31]": {"assay": "MRT(0 to t) in Sprague-Dawley rat at 15 mg/kg, IG", "format": "ADME, organism-based", "conditions": "in vivo, po"}, "[32]": {"tested_on": "Mus musculus", "assay": "Neuroprotective effect in scopolamine induced cognitively impaired mouse assessed as decrease in neuronal damage in CA1 region at hippocampus at 20 mg/kg by immunofluorescence staining analysis", "format": "functional, organism-based"}, "[33]": {"tested_on": "BV-2", "assay": "Effect of amyloid beta (1 to 42) indued apoptosis in mouse BV-2 cells assessed as late apoptotic cells at 5 uM measured by propidium iodide staining based flow cytometric analysis (reference value: 6.88%)", "format": "functional"}, "[34]": {"tested_on": "BV-2", "assay": "Antiinflammatory activity in LPS induced mouse BV-2 cells decrease in release of […] at 5 uM by […] (reference value: 100%)", "format": "functional"}, "[35]": {"target": "T1, Amyloid-beta precursor protein", "assay": "Inhibition of Cu2+ induced amyloid beta (1 to 42) (unknown origin) aggregation assessed as depolymerization at 50 uM for 24 hrs by TEM analysis"}, "[36]": {"tested_on": "BV-2", "assay": "Effect on H2O2 induced reactive oxygen species in mouse BV-2 cells assessed as reduction of ROS generation at 5 uM by fluorescence microscopic analysis relative to control", "format": "functional", "parameters": "scale not given: the % may be the effect or the level left"}}, "note": "Calls of active or inactive are those of the source. The rule behind the calls is not given here."}
{"smiles": "O=c1ccoc(/C=C/c2ccc(O)c(O)c2)c1O", "values": [{"measurement": "Activity", "setting": "[1]", "result": "Active"}, {"measurement": "Activity", "setting": "[2]", "result": "Active"}, {"measurement": "Activity", "setting": "[3]", "result": "Active"}, {"measurement": "Activity", "setting": "[4]", "result": "Active"}, {"measurement": "concentration at 0.083 h", "setting": "[5]", "result": 18.5, "unit": "ng/mL"}, {"measurement": "Activity", "setting": "[6]", "result": "Active"}, {"measurement": "Activity", "setting": "[7]", "result": 13.4, "unit": "%"}, {"measurement": "viability at 2.5 µM", "setting": "[8]", "result": 76.2, "unit": "%"}, {"measurement": "Activity", "setting": "[9]", "result": "Active"}, {"measurement": "Activity", "setting": "[10]", "result": "Active"}, {"measurement": "Activity", "setting": "[11]", "result": "Active"}, {"measurement": "Activity", "setting": "[12]", "result": "Active"}, {"measurement": "viability at 10 µM", "setting": "[13]", "result": 63.1, "unit": "%"}, {"measurement": "Activity", "setting": "[14]", "result": "inactive"}, {"measurement": "Activity", "setting": "[15]", "result": "Active"}, {"measurement": "Activity", "setting": "[16]", "result": "Dose-Dependent Effect"}, {"measurement": "Activity", "setting": "[17]", "result": "Active"}, {"measurement": "concentration at 0.167 h", "setting": "[18]", "result": 1.41, "unit": "ng/mL"}, {"measurement": "concentration at 0.25 h", "setting": "[19]", "result": 2.57, "unit": "ng/mL"}, {"measurement": "Activity", "setting": "[20]", "result": "Active"}, {"measurement": "Activity", "setting": "[21]", "result": 8.32, "unit": "%"}, {"measurement": "Activity", "setting": "[22]", "result": "Active"}, {"measurement": "inhibition", "setting": "[23]", "result": 90.4, "unit": "%"}, {"measurement": "Activity", "setting": "[24]", "result": "Active"}, {"measurement": "concentration at 1 h", "setting": "[25]", "result": 1.77, "unit": "ng/mL"}, {"measurement": "Activity", "setting": "[26]", "result": "Non-Toxic"}, {"measurement": "Activity", "setting": "[27]", "result": 0.84, "unit": "%"}, {"measurement": "Activity", "setting": "[28]", "result": "Active"}, {"measurement": "Activity", "setting": "[29]", "result": "Non-Toxic"}, {"measurement": "inhibition", "setting": "[30]", "result": "Active"}, {"measurement": "MRT last", "setting": "[31]", "result": 6.36, "unit": "h"}, {"measurement": "Activity", "setting": "[32]", "result": "Active"}, {"measurement": "Activity", "setting": "[33]", "result": 13.4, "unit": "%"}, {"measurement": "Nitric oxide release (% of LPS control)", "setting": "[34]", "result": 86.32, "unit": "%"}, {"measurement": "inhibition", "setting": "[35]", "result": "Active"}, {"measurement": "Activity", "setting": "[36]", "result": 19.45, "unit": "%"}]}
